These compounds were tested on LXRα/β (assay: Ligand induced translocation of LXRα/β to the nucleus, imaging flow cytometry in HaCaT). Conditions: 10^–7 M, 12 h.
Type: cell-based, human
Experimental: HaCaT cells were plated in DMEM plus 5% cFBS either on a sterile glass cover slip placed in a well of a 6-well plates for immunofluorescence (IF) assays or TPP Petri dishes for image-stream flow cytometry, and treated with 10^–7 M D3- or L3-hydroxyderivatives or 0.1% ethanol (vehicle) as a negative control was added to each well, and the cells were incubated for 12 or 24 h at 37 °C with 5% CO2. For IF the cells were fixed in 4% paraformaldehyde for 15 min, incubated in 0.5% Triton X-100 in phosphate-buffered saline (PBS) for 5 min, and washed 3 times in PBS. After blocking with 2% bovine serum albumin (BSA) in PBS for 1 h at room temperature, the cells were treated with an anti-LXRα antibody (Novus Biologicals, LLC, Centennial, CO) at 1:200 in PBS supplemented with 2% BSA overnight in 4 °C. After washing the slides were incubated with a mouse anti-rabbit IgG-FITC (Santa Cruz Biotechnology, Inc, Dallas, TX) at 1:200 dilution for 1.5 h at 37 °C. After washing the slides were mounted using propidium iodide (PI) (Vector Labs, Burlingame, California) as a nuclear counterstain. The slides were examined using a KEYENCE America BZ-X710 Fluorescence Microscope (Itasca, IL). The images were subsequently analyzed using the JACoP plugin for colocalization analysis with ImageJ[74]. Five separate high-power field (40×) images were converted to grayscale and analyzed for each condition. Manders’ coefficient (M1), calculated using a preset threshold, was used to quantify the degree of colocalization between PI and LXRα with 0 representing no colocalization, and 1 representing perfect colocalization.
For Image Stream II (Amnis, Seattle, WA, USA) cytometer analyses, HaCaT cells were detached and processed as previously described. The cells were fixed with paraformaldehyde and permeabilized in methanol containing buffer[78],[79] and Hoechst stain (r37165, ThermoFisher) and rabbit antibodies to LXRα/β (sc 377260, AF 647, SantaCruz) or VDR (sc-13133, AF 488, SantaCruz) as described previously. Data were analyzed using IDEAS software (Amnis, Seattle, WA, USA).

Structure (SMILES) | translocation of LXRα/β from the cytoplasm to the nucleus
C=C1CC[C@H](O)C/C1=C/C=C1\CCC[C@@]2(C)[C@H]1CC[C@@H]2[C@@](C)(O)CCCC(C)C [20(OH)D3] | increased translocation
C=C1/C(=C\C=C2/CCC[C@]3(C)[C@@H]([C@H](C)CCCC(C)(C)O)CC[C@@H]23)C[C@@H](O)C[C@@H]1O [1,25(OH)2D3, reference compound] | increased translocation
C=C1C(=CC=C2CCCC3(C)C2CCC3C(C)(O)CC(O)CC(C)C)CC(O)CC1O (stereo not drawn) [1,20,23(OH)3D3] | increased translocation

Source: paper PMC8044163, “Vitamin D and lumisterol derivatives can act on liver X receptors (LXRs)” (Scientific Reports, 2021)
